# Measurements: patent US20220281848A1, “PYRAZOLE-SUBSTITUTED PYRROLIDINONES AS HERBICIDES” (FMC Corporation, priority 2019, published 2022)
# Test system: plants
# Test: Test D pre-emergence, other plants of Tables D1 and D3
# Assay type: in vivo
# Settings: for damage to plant (100=total damage to plant; 0=no damage to plant), SORVU: preemergent, 20 DAA; for damage to plant, ALOMY / damage to plant, AVEFA / damage to plant, BEAVA / damage to plant, BROTE / damage to plant, BRSNN / damage to plant, CHEAL / damage to plant, GALAP / damage to plant, HORVW / damage to plant, KCHSC / damage to plant, LOLPE / damage to plant, POAAN / damage to plant, POLCO / damage to plant, SINAR / damage to plant, STEME / damage to plant, VERPE: pre-emergence, 100=total damage, 0=no damage
# Method in brief: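 Damage was rated visually from 0 (none) to 100 (total), at 20 DAA for pre-emergence and 15 d for post-emergence. Plants grew from safener-treated seed in a glasshouse at 24/18° C. or 20/16° C. day/night, 65% humidity, watered twice daily.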
smiles,measurement,setting,value
CN1C[C@H](c2nn(C)c3c(F)cccc23)[C@@H](C(=O)Nc2cccc(F)c2F)C1=O [Compound 2],"damage to plant (100=total damage to plant; 0=no damage to plant), SORVU",rate 130,0
same,"damage to plant (100=total damage to plant; 0=no damage to plant), SORVU",rate 250,0
same,"damage to plant (100=total damage to plant; 0=no damage to plant), SORVU",rate 500,0
same,"damage to plant, ALOMY","rate 15, 20 DAA",0
same,"damage to plant, AVEFA","rate 15, 20 DAA",0
same,"damage to plant, BEAVA","rate 15, 20 DAA",0
same,"damage to plant, BROTE","rate 15, 20 DAA",0
same,"damage to plant, BRSNN","rate 15, 20 DAA",0
same,"damage to plant, CHEAL","rate 15, 20 DAA",0
same,"damage to plant, GALAP","rate 15, 20 DAA",0
same,"damage to plant, HORVW","rate 15, 20 DAA",0
same,"damage to plant, KCHSC","rate 15, 20 DAA",0
same,"damage to plant, LOLPE","rate 15, 20 DAA",0
same,"damage to plant, POAAN","rate 15, 20 DAA",0
same,"damage to plant, POLCO","rate 15, 20 DAA",0
same,"damage to plant, SINAR","rate 15, 20 DAA",0
same,"damage to plant, STEME","rate 15, 20 DAA",0
same,"damage to plant, VERPE","rate 15, 20 DAA",0
same,"damage to plant, ALOMY","rate 30, 20 DAA",0
same,"damage to plant, AVEFA","rate 30, 20 DAA",0
same,"damage to plant, BEAVA","rate 30, 20 DAA",0
same,"damage to plant, BROTE","rate 30, 20 DAA",0
same,"damage to plant, BRSNN","rate 30, 20 DAA",0
same,"damage to plant, CHEAL","rate 30, 20 DAA",0
same,"damage to plant, GALAP","rate 30, 20 DAA",0
same,"damage to plant, HORVW","rate 30, 20 DAA",0
same,"damage to plant, KCHSC","rate 30, 20 DAA",0
same,"damage to plant, LOLPE","rate 30, 20 DAA",0
same,"damage to plant, POAAN","rate 30, 20 DAA",0
same,"damage to plant, POLCO","rate 30, 20 DAA",0
same,"damage to plant, SINAR","rate 30, 20 DAA",0
same,"damage to plant, STEME","rate 30, 20 DAA",0
same,"damage to plant, VERPE","rate 30, 20 DAA",0
same,"damage to plant, ALOMY","rate 60, 20 DAA",0
same,"damage to plant, AVEFA","rate 60, 20 DAA",0
same,"damage to plant, BEAVA","rate 60, 20 DAA",0
same,"damage to plant, BROTE","rate 60, 20 DAA",0
same,"damage to plant, BRSNN","rate 60, 20 DAA",0
same,"damage to plant, CHEAL","rate 60, 20 DAA",0
same,"damage to plant, GALAP","rate 60, 20 DAA",0
same,"damage to plant, HORVW","rate 60, 20 DAA",0
same,"damage to plant, KCHSC","rate 60, 20 DAA",0
same,"damage to plant, LOLPE","rate 60, 20 DAA",10
same,"damage to plant, POAAN","rate 60, 20 DAA",0
same,"damage to plant, POLCO","rate 60, 20 DAA",0
same,"damage to plant, SINAR","rate 60, 20 DAA",0
same,"damage to plant, STEME","rate 60, 20 DAA",0
same,"damage to plant, VERPE","rate 60, 20 DAA",0
same,"damage to plant, ALOMY","rate 130, 20 DAA",0
same,"damage to plant, AVEFA","rate 130, 20 DAA",0
same,"damage to plant, BEAVA","rate 130, 20 DAA",0
same,"damage to plant, BROTE","rate 130, 20 DAA",10
same,"damage to plant, BRSNN","rate 130, 20 DAA",0
same,"damage to plant, CHEAL","rate 130, 20 DAA",0
same,"damage to plant, GALAP","rate 130, 20 DAA",0
same,"damage to plant, HORVW","rate 130, 20 DAA",0
same,"damage to plant, KCHSC","rate 130, 20 DAA",0
same,"damage to plant, LOLPE","rate 130, 20 DAA",30
same,"damage to plant, POAAN","rate 130, 20 DAA",10
same,"damage to plant, POLCO","rate 130, 20 DAA",20
same,"damage to plant, SINAR","rate 130, 20 DAA",0
same,"damage to plant, STEME","rate 130, 20 DAA",0
same,"damage to plant, VERPE","rate 130, 20 DAA",0
same,"damage to plant, ALOMY","rate 250, 20 DAA",20
same,"damage to plant, AVEFA","rate 250, 20 DAA",0
same,"damage to plant, BEAVA","rate 250, 20 DAA",0
same,"damage to plant, BROTE","rate 250, 20 DAA",20
same,"damage to plant, BRSNN","rate 250, 20 DAA",10
same,"damage to plant, CHEAL","rate 250, 20 DAA",0
same,"damage to plant, GALAP","rate 250, 20 DAA",0
same,"damage to plant, HORVW","rate 250, 20 DAA",10
same,"damage to plant, KCHSC","rate 250, 20 DAA",0
same,"damage to plant, LOLPE","rate 250, 20 DAA",60
same,"damage to plant, POAAN","rate 250, 20 DAA",50
same,"damage to plant, POLCO","rate 250, 20 DAA",20
same,"damage to plant, SINAR","rate 250, 20 DAA",0
same,"damage to plant, STEME","rate 250, 20 DAA",0
same,"damage to plant, VERPE","rate 250, 20 DAA",0
same,"damage to plant, ALOMY","rate 500, 20 DAA",40
same,"damage to plant, AVEFA","rate 500, 20 DAA",10
same,"damage to plant, BEAVA","rate 500, 20 DAA",10
same,"damage to plant, BROTE","rate 500, 20 DAA",20
same,"damage to plant, BRSNN","rate 500, 20 DAA",20
same,"damage to plant, CHEAL","rate 500, 20 DAA",0
same,"damage to plant, GALAP","rate 500, 20 DAA",0
same,"damage to plant, HORVW","rate 500, 20 DAA",20
same,"damage to plant, KCHSC","rate 500, 20 DAA",0
same,"damage to plant, LOLPE","rate 500, 20 DAA",70
same,"damage to plant, POAAN","rate 500, 20 DAA",90
same,"damage to plant, POLCO","rate 500, 20 DAA",60
same,"damage to plant, SINAR","rate 500, 20 DAA",0
same,"damage to plant, STEME","rate 500, 20 DAA",60
same,"damage to plant, VERPE","rate 500, 20 DAA",0
